Where two headings read alike, the source gives them in different places.
Assays:
[1] = test system: AMPA-induced clonic seizures in NMRI mice; test: AMPA-induced clonic seizures (AMPA seizure test); format: in vivo; settings: Mus musculus, female NMRI mice, dose inhibiting 50% of the mice from having clonic seizures
Experimental: AMPA given icv (intracerebroventricular) (15 μg/kg) NMRI to mice induces clonic seizures which should be inhibited by non-NMDA receptor antagonists.
Test compound was given i.v. 5 min (or p.o. 30 min) before a 0.3 μg icv administration of AMPA to 10 female NMRI mice (weighing 24-26 g) per dose. The number of mice experiencing clonic seizures within the next 5 min was noted. An ED50 value was calculated as the dose inhibiting 50% of the mice from having clonic seizures.

[2] = molecular target: AMPA binding site; test: AMPA binding assay (T. Honore et al., Neuroscience Letters 54, 27-32 (1985))

Structure (SMILES): CN(C)S(=O)(=O)c1cc2c(c3c1CCCC3)NC(=O)C2=NO [5-N,N-dimethylsulfamoyl-1H-6,7,8,9-tetrahydrobenz[g]indole-2,3-dione-3-oxime]
- ED50 ([1]; iv, 5 min, administered i.v. 5 min before 0.3 μg icv AMPA, read-out: ED50 in the AMPA seizure test, i.v.): 3 mg/kg
- ED50 ([1]; po, 0.5 h, administered orally (p.o.) 30 min before 0.3 μg icv AMPA, read-out: ED50 in the AMPA seizure test, orally): 30 mg/kg
- IC50 [2]: 2000 nM

— patent publication US5223527A, “Isatineoxime derivatives and their use” (NeuroSearch A/S, priority 1992, dated 1993)
